# Data as given in patent US20220175766A1, “COMPOSITIONS AND METHODS OF TREATMENT” (GB004, Inc., priority 2019, published 2022).
# Like-named read-outs stand apart in the source and are kept apart here.
# Key:
# [1] = Compound 1 pH-solubility at 22° C.; type: physicochemical; details: thermodynamic from solid
# Text: The solubility of Compound 1 at various pH's was investigated.
# [2] = type: physicochemical
# Experimental: Binary mixtures of Compound 1 HCl salt (prepared according to Example 2.1) and excipient were stored at 40° C. and 75% RH for 4 weeks and analysed at weekly intervals for appearance, moisture content (KF) and HPLC purity of Compound 1, with the excipients studied being microcrystalline cellulose, silicified microcrystalline cellulose, lactose, crospovidone, croscarmellose sodium, sodium starch glycolate, magnesium stearate, sodium stearyl fumarate, red iron oxide, blue #2, eudragit, polyvinylpyrrolidone, HPMC-AS, anhydrous citric acid and HPMC.
# [3] = Dispersion of Compound 1⋅HCl in stirred water with or without poloxamer 188; type: physicochemical; details: 0.25 g in 50 mL water, in the presence of poloxamer 188 (0.25 g) vs without
# Experimental: Compound 1⋅HCl (0.25 g) was added to each of two stirred beakers containing water (50 mL), one also containing poloxamer 188 (0.25 g). The dispersion of Compound 1 throughout the beaker was higher in the presence of Poloxamer 188.
structure (smiles),measurement,setting,value
CC(C)(C)OC(=O)N1CCN(Cc2ccn(Cc3ccc(Cl)cc3)c(=O)c2O)CC1.Cl [Compound 1 HCl salt],solubility,"[1]; citrate buffer, aqueous buffer, pH 3 (Citrate 25 mM, l = 0.1), pH 3.0, 22° C.",600 µg/mL
same,solubility,"[1]; simulated gastric fluid, 0.1M HCl, pH 1.3, 22° C.",1810 µg/mL
same,solubility,"[1]; Water (1 mg/ml load), pH 3.1, 22° C.",550 µg/mL
same,solubility,"[1]; Water (5 mg/ml load), pH 2.2, 22° C.",2070 µg/mL
same,Stability on storage,[2]; 40° C. and 75% RH for 4 weeks,stable
same,Appearance of binary mixture,"[2]; binary mixture with citric acid, 40° C. and 75% RH, after 1 week",liquefied
same,API purity by HPLC,"[2]; binary mixture with citric acid, 40° C. and 75% RH, after 4 weeks",34.1%
same,Total impurities,"[2]; binary mixture with microcrystalline cellulose, 40° C. and 75% RH, after 4 weeks",0.51%
same,Total impurities,"[2]; binary mixture with silicified microcrystalline cellulose, 40° C. and 75% RH, after 4 weeks",0.69%
same,Dispersion of Compound 1 throughout the beaker,[3],higher
